From patent EP4310072A1, “ULTRAVIOLET ABSORBER, COMPOSITION, COSMETIC PRODUCT, AND PROCESS FOR PREPARING COSMETIC PRODUCT” (MFCI (Huanggang) Co., Ltd., priority 2021, dated 2023) come the findings set out here.

Holding throughout (assay type): physicochemical
Data set [1] can be described thus: Particle size testing by laser diffraction (Malvern MS2000 laser particle size analyzer, dispersant water). Particulars: for αd5: Vd5/Vd100, distribution coefficient of particles with a particle size of 5 µm; for αd10: Vd10/Vd100, distribution coefficient of 10 µm particles; for Consistency / Span (β) / Specific surface area / Surface area-average particle size D[3,2] / Volume-average particle size D[4,3]: laser diffraction, dispersant water; for d(0.9): maximum particle size, cumulative distribution 90%; for d(0.5): median particle size, cumulative distribution 50%; for d(0.1): minimum particle size, cumulative distribution 10%; for Particle size distribution d(0.9) (integer) / Particle size distribution d(0.1) (integer): rounded to integer, Tables 14 and 16. As for the experimental part:
The particle size distribution and characteristics of the ultraviolet absorber described herein, such as the minimum particle size d(0.1), the d(0.9) and the consistency are determined by a laser diffraction method, and determination conditions are as follows: • particle size analyzer: Malvern MS2000 laser particle size analyzer; • name of an injector: Hydro 2000MU (A); • analysis mode: general; • particle size range: 0.02-2000 µm; • name of a dispersant: water.

A short description of data set [2]: First dissolution experiment: sample stirred into the oil phase of an SPF 25 sunscreen oil, 3% DHHB. Particulars: added concentration 3%, 25°C, stirring rate 150 r/min. Here is the method:
In this dissolution experiment, the agglomeration degree of the ultraviolet absorbers in the above examples and comparative examples was evaluated, and each sample of a certain mass was added into an oil phase and stirred at room temperature (25°C) at a stirring rate of 150 r/min for dissolution. The dissolution experiment was carried out on raw materials for preparation of a sunscreen oil with a sun protection factor (SPF) value of 25. Table 13 Raw material table
Except that DHHB is a solid, all other components are liquid oils. A production process includes: sequentially adding various components into an oil pot, and enabling a stirring function until the components are completely dissolved. Table 14 Sample property test result table

Data set [3] can be described thus: Second dissolution experiment: sample stirred into the oil phase of an SPF 25 sunscreen oil, 6% DHHB. Particulars: for increase rate of dissolution time: added concentration 6% versus 3%; for Sample dissolution time: added concentration 6%, 25°C, stirring rate 150 r/min, oil phase. Here is the method: In this dissolution experiment, the agglomeration degree of the ultraviolet absorbers in the above examples and comparative examples was evaluated, and each sample of a certain mass was added into an oil phase and stirred at room temperature (25°C) at a stirring rate of 150 r/min for dissolution. The dissolution experiment was carried out on raw materials for preparation of a sunscreen oil with an SPF value of 25. Table 15 Raw material table
Except that DHHB is a solid, all other components are liquid oils. A production process includes: sequentially adding various components into an oil pot, and enabling a stirring function until the components are completely dissolved. Table 16 Sample property test result table

Bounds are passed on as bounds.

Turning to `CCCCCCOC(=O)c1ccccc1C(=O)c1ccc(N(CC)CC)cc1O` [Comparative Example 1], in data set [1], the “difference between D[3,2] and D[4,3]” value was 128.616 µm; the αd5 was 0.005; the αd10 was found to be 0.122; the Consistency is 2.44. Besides, in data set [1], the “Span (β)” value is recorded as 10.995, the Specific surface area came to 0.258 m^2/g, the “Surface area-average particle size D[3,2]” value turned out to be 23.263 µm and the “Volume-average particle size D[4,3]” value is given as 151.879 µm. Moreover, in data set [1], the “d(0.9)” value turned out to be 518.950 µm, the “d(0.5)” value is recorded as 51.970 µm, the “d(0.1)” value is reported as 10.517 µm and the Particle size distribution d(0.9) (integer) came to 519 µm. The “Particle size distribution d(0.1) (integer)” value in data set [1] (in µm) is 11. The compound further came in with a Sample dissolution time in data set [2] of 151 min. In data set [3], the “increase rate of dissolution time” value is “about 38%” and the Sample dissolution time is recorded as 208 min.
On to `CCCCCCOC(=O)c1ccccc1C(=O)c1ccc(N(CC)CC)cc1O` [Comparative Example 2, reference compound], for which, in data set [1], the “Particle size distribution d(0.1) (integer)” value is 850 (±20) and the Particle size distribution d(0.9) (integer) came to 1000 µm. For the same compound, in data set [2], the Sample dissolution time is reported as 134 min. Also, in data set [3], the “increase rate of dissolution time” value was “about 50%” and the Sample dissolution time came out at 202 min.
`CCCCCCOC(=O)c1ccccc1C(=O)c1ccc(N(CC)CC)cc1O` [Example 1, 2-(4-N,N-diethylamino-2-hydroxybenzoyl) hexyl benzoate]: in data set [1], the “difference between D[3,2] and D[4,3]” value is 11.727 µm; the αd5 was found to be 0.0160; the αd10 is on record as 0.111; the Consistency was 0.638. Further, in data set [1], the “Span (β)” value is 2.008, the Specific surface area worked out at 0.331 m^2/g, the “Surface area-average particle size D[3,2]” value is recorded as 18.113 µm and the “Volume-average particle size D[4,3]” value was 29.840 µm. Also, in data set [1], the “d(0.9)” value came out at 57.575 µm, the “d(0.5)” value is 23.866 µm, the “d(0.1)” value turned out to be 9.647 µm and the Particle size distribution d(0.9) (integer) amounted to 58 µm.
Regarding `CCCCCCOC(=O)c1ccccc1C(=O)c1ccc(N(CC)CC)cc1O` [Example 2, 2-(4-N,N-diethylamino-2-hydroxybenzoyl) hexyl benzoate], in data set [1], the “difference between D[3,2] and D[4,3]” value is 8.865 µm; the αd5 is listed as 0.006; the αd10 came out at 0.104; the Consistency was found to be 0.578. Also, in data set [1], the “Span (β)” value was 1.869, the Specific surface area is on record as 0.325 m^2/g, the “Surface area-average particle size D[3,2]” value was 18.463 µm and the “Volume-average particle size D[4,3]” value is 27.328 µm. Also, in data set [1], the “d(0.9)” value stood at 51.867 µm, the “d(0.5)” value is 22.470 µm, the “d(0.1)” value is listed as 9.862 µm and the Particle size distribution d(0.9) (integer) stood at 52 µm. The “Particle size distribution d(0.1) (integer)” value in data set [1] (in µm) came out at 10. The compound further yielded a Sample dissolution time in data set [2] of under 5 min. Besides, the Sample dissolution time in data set [3] is listed as under 5 min.
Regarding `CCCCCCOC(=O)c1ccccc1C(=O)c1ccc(N(CC)CC)cc1O` [Example 3, 2-(4-N,N-diethylamino-2-hydroxybenzoyl) hexyl benzoate], in data set [1], the “difference between D[3,2] and D[4,3]” value worked out at 17.543 µm; the αd5 amounted to 0.019; the αd10 was 0.107; the Consistency came to 0.691. For the same compound, in data set [1], the “Span (β)” value was determined as 2.23, the Specific surface area turned out to be 0.295 m^2/g, the “Surface area-average particle size D[3,2]” value is recorded as 20.356 µm and the “Volume-average particle size D[4,3]” value was 37.899 µm. Moreover, in data set [1], the “d(0.9)” value is on record as 77.626 µm, the “d(0.5)” value turned out to be 30.410 µm, the “d(0.1)” value came to 9.803 µm and the Particle size distribution d(0.9) (integer) stood at 78 µm. Moreover, in data set [1] (in µm), the “Particle size distribution d(0.1) (integer)” value worked out at 10. Moreover, the Sample dissolution time in data set [2] is given as under 5 min. The compound further showed a Sample dissolution time in data set [3] of under 5 min.
As for `CCCCCCOC(=O)c1ccccc1C(=O)c1ccc(N(CC)CC)cc1O` [Example 4, 2-(4-N,N-diethylamino-2-hydroxybenzoyl) hexyl benzoate], in data set [1], the “difference between D[3,2] and D[4,3]” value worked out at 11.215 µm; the αd5 was found to be 0.002; the αd10 was 0.074; the Consistency was found to be 0.62. Further, in data set [1], the “Span (β)” value was 1.998, the Specific surface area was 0.284 m^2/g, the “Surface area-average particle size D[3,2]” value is on record as 21.149 µm and the “Volume-average particle size D[4,3]” value was found to be 32.364 µm. In data set [1], the “d(0.9)” value turned out to be 62.903 µm, the “d(0.5)” value came to 25.939 µm, the “d(0.1)” value came to 11.066 µm and the Particle size distribution d(0.9) (integer) was 63 µm. Moreover, in data set [1] (in µm), the “Particle size distribution d(0.1) (integer)” value was determined as 11. The compound also returned a Sample dissolution time in data set [2] of under 5 min. In data set [3], the Sample dissolution time is under 5 min.
For the compound `CCCCCCOC(=O)c1ccccc1C(=O)c1ccc(N(CC)CC)cc1O` [Example 5, 2-(4-N,N-diethylamino-2-hydroxybenzoyl) hexyl benzoate], in data set [1], the “difference between D[3,2] and D[4,3]” value is on record as 21.881 µm; the αd5 was determined as 0.037; the αd10 is reported as 0.095; the Consistency was found to be 0.596. In addition, in data set [1], the “Span (β)” value is recorded as 1.944, the Specific surface area is given as 0.281 m^2/g, the “Surface area-average particle size D[3,2]” value amounted to 21.390 µm and the “Volume-average particle size D[4,3]” value is listed as 43.271 µm. Moreover, in data set [1], the “d(0.9)” value is reported as 43.271 µm, the “d(0.5)” value is 21.390 µm, the “d(0.1)” value turned out to be 10.747 µm and the Particle size distribution d(0.9) (integer) stood at 43 µm. In addition, the “Particle size distribution d(0.1) (integer)” value in data set [1] (in µm) was 10. Besides, in data set [2], the Sample dissolution time was under 5 min. Also, the Sample dissolution time in data set [3] is reported as under 5 min.
